Source: patent publication US20260184742A1, “PEPTIDES” (CAROCELL BIO LIMITED, priority 2022, published 2026)
Like-named read-outs stand apart in the source and are kept apart here. Where no end group is shown, it is not given here.

What was measured:
[1] = tested on: AD phenotype of skin biopsies (white space; Filaggrin, Involucrin, TSLP); experiment: Atopic Dermatitis (AD) model in skin biopsies; type: cell-based; settings: for phenotype: donor ALC1373, 0.1 and 1.0 μg/ml, appeared an improvement above Clobetasol; for phenotype ("white space") analysis: 0.1, 1.0 and 2.5 μg/ml, not as apparent as Clobetasol
Description: The AD phenotype was assessed by measuring the intensity of the “white space” within the biopsies—this was increased from 20% in the media alone control to 80% on AD induction and reduced with Clobetasol (a topical corticosteroid) to 40%. All concentrations of the compound (JEL0305, JEL2603, JEL1103 or JEL0802) reduced the white space by between 50 and 60% as a similar trend to Clobetasol. Three further donors (ALC1373, ALC1366 and ALC1365) were used to develop atopic dermatitis after treatment with activated PBMC and a cytokine cocktail model and assessed phenotypically as well as by biomarker (Filaggrin, Involucrin and TSLP) by immunohistochemistry. For 2 donors (ALC1366 and ALC1365) Filaggrin and Involucrin were reduced compared non-AD induced skin biopsies in media alone. This is the expected response for AD induction. In the presence of the control drug Clobetasol the expression of Filaggrin and Involucrin was increased due to the drug reversing the AD phenotype. […] But this was not as apparent as Clobetasol more than likely due to the lipid formulation causing an upregulation of cytokines. […] Filaggrin results were inconclusive.

[2] = tested on: human TNFα in activated M1-macrophages (THP1-derived, LPS-activated); experiment: In vitro anti-inflammatory activity (ELISA), TNFα as marker; type: cell-based; settings: compared with T0, 100 ng/mL
Description: The anti-inflammatory response of each free peptide and each peptide-polymer formulation was determined using TNFα as a marker. The anti-inflammatory bioactivity was assessed using enzyme-linked immunosorbent assay (ELISA) for quantitative detection of human TNFα in activated M1-macrophages. THP1 human monocytes were differentiated into macrophages (M0), which were then activated (overnight) with lipopolysaccharide (LPS) into M1-macrophages. LPS prompts the abundant production of many pro-inflammatory cytokines from macrophages, including TNF-α, which actively contributes to the inflammatory response. At the T0 and T4 (after 4 weeks storage at RT or 4° C.) time points, each JEL peptide and each JEL-polymer formulation was incubated in previously LPS-activated M1-macrophages for 24 h at 37° C. After incubation, supernatants were collected, centrifuged and stored at −80° C. in readiness for the enzyme-linked immunosorbent assay (ELISA). Each supernatant sample was defrosted and the ELISA assay undertaken according to the Invitrogen protocol. FIGS. 1-4 show the concentrations of human TNFα detected by ELISA after incubation with each free and polymer loaded peptide at a concentration of 100 ng/mL.

[3] = tested on: HLA (human leucocyte antigen) mismatched GvHD model; experiment: Skimune skin explant assay, HLA mismatched GvHD model; type: cell-based; settings: LNP formulation of the compound, added throughout the mixed lymphocyte reaction and spiked into the skin explant
[4] = tested on: pro-inflammatory cytokines including Th1 (IFNγ, TNFα, IL-1β) and Th2 cytokines (IL-13 and IL-4)
[5] = tested on: pro-inflammatory cytokines including Th1 (IFNγ, TNFα, IL-1β) and Th2 cytokines (IL-13 and IL-4); experiment: Cytokine levels from the Skimune assays; settings: current concentrations and lipid formulation; GvHD type assays
[6] = donors ALC1366 and ALC1365, compound at 0.1, 1.0 and 2.5 μg/ml
[7] = after 4 weeks storage at room temperature (RT)

| pro-inflammatory cytokines [5] | Molecule | anti-inflammatory activity (human TNFα detected by ELISA) after storage ([2]; after 4 weeks storage at 4° C.) | anti-inflammatory activity (human TNFα detected by ELISA) after storage [2, 7] | Graft versus Host reaction grade [3] | inhibition of the Graft versus Host response [3] | phenotype [1] | phenotype ("white space") analysis ([1]; donors ALC1366 and ALC1365) | pro-inflammatory cytokines [4] | further results |
| --- | --- | --- | --- | --- | --- | --- | --- | --- | --- |
| – | C[C@H]1C[C@H]2[C@@H]3CCC4=CC(=O)C=C[C@]4(C)[C@@]3(F)[C@@H](O)C[C@]2(C)[C@@]1(O)C(=O)CCl [Clobetasol, reference compound] | – | – | – | – | – | – | – | intensity of the "white space" within the biopsies ([1]; 20% in media alone control, 80% on AD induction): 40%; Filaggrin expression by immunohistochemistry [1, 6]: increased; Involucrin expression by immunohistochemistry [1, 6]: increased |
| – | HKSRARLIFHEGPCGVRR [JEL1103] | maintained | maintained | Grade III | no inhibition | some improvement of the phenotype | improved and reversal of damage | significant increases | – |
| – | SRALKIFLATRKDRSPWH [JEL2603] | some diminution of anti-inflammatory activity | activity is lost | Grade III | no inhibition | some improvement of the phenotype | improved and reversal of damage | significant increases | – |
| significant increases | SRALLIFQKI [JEL0802, Ser-Arg-Ala-Leu-Leu-Ile-Phe-Gln-Lys-Ile] | – | – | – | – | – | – | – | – |
| significant increases | VSRATRIFKLSQLRGQCA [JEL0305, Val-Ser-Arg-Ala-Thr-Arg-Ile-Phe-Lys-Leu-Ser-Gln-Leu-Arg-Gly-Gln-Cys-Ala] | – | – | – | – | – | – | – | – |
